Laboratory results published in ChEMBL document CHEMBL1127364, “L-735,524: the design of a potent and orally bioavailable HIV protease inhibitor” (J Med Chem, 1994).

Key:
MT4 [1] = experiment: Compound was evaluated for the inhibition of the spread of HIV-1 IIIb infection in MT-4 human T-lymphoid cells; value ranges from 50-100 nM; format: functional; conditions: read-out: CIC95
[2] = target: Human immunodeficiency virus type 1 protease (Human immunodeficiency virus 1, UniProt Q72874); experiment: Evaluated for the inhibition of HIV protease
[3] = target: Human immunodeficiency virus type 1 protease (Human immunodeficiency virus 1) (UniProt Q72874); experiment: Inhibition of the spread of HIV-1 IIIb infection in MT-4 human T-lymphoid cells; format: functional, cell-based
MT4 [4] = experiment: Compound was evaluated for the inhibition of the spread of HIV-1 IIIb infection in MT-4 human T-lymphoid cells; value ranges from 25-50 nM; format: functional; conditions: read-out: CIC95
[5] = Partition coefficient of the compound was evaluated; format: physicochemical; conditions: octanol/water
[6] = Compound was evaluated for maximum plasma concentration levels in dogs at 10 mg/kg (in 0.05M citric acid solution) po; conditions: dog
[7] = Compound was evaluated for the solubility at pH value of 7.4; format: physicochemical; conditions: pH 7.4
MT4 [8] = experiment: Compound was evaluated for the inhibition of the spread of HIV-1 IIIb infection in MT-4 human T-lymphoid cells; value ranges from […]-[…] nM; format: functional; conditions: read-out: CIC95
MT4 [9] = experiment: Compound was evaluated for the inhibition of the spread of HIV-1 IIIb infection in MT-4 human T-lymphoid cells; value ranges from 25-100 nM; format: functional; conditions: read-out: CIC95

SMILES	IC50 [2] [nM]	IC95 [3] [nM]	also measured
CC(C)(C)NC(=O)[C@@H]1CN(Cc2ccncc2)CCN1C[C@@H](O)C[C@@H](Cc1ccccc1)C(=O)N[C@@H]1c2ccccc2C[C@H]1O	0.39		IC95 (MT4 [1]): 50 nM
CC(C)(C)NC(=O)[C@@H]1CN(C(=O)c2cc3ccccc3oc2=O)CCN1C[C@@H](O)C[C@@H](Cc1ccccc1)C(=O)N[C@@H]1c2ccccc2C[C@H]1O	0.13	50	
CC(C)(C)NC(=O)[C@@H]1CN(Cc2ccccc2)CCN1C[C@@H](O)C[C@@H](Cc1ccccc1)C(=O)N[C@@H]1c2ccccc2C[C@H]1O	0.3	50	
CC(C)(C)NC(=O)[C@@H]1CCCN1C[C@@H](O)C[C@@H](Cc1ccccc1)C(=O)N[C@@H]1c2ccccc2C[C@H]1O	347	1500	
CC(C)(C)NC(=O)[C@@H]1C[C@H](Oc2ccc3ccccc3c2)CN1C[C@@H](O)C[C@@H](Cc1ccccc1)C(=O)N[C@@H]1c2ccccc2C[C@H]1O	15	> 400	
CC(C)(C)NC(=O)[C@@H]1CN(Cc2ccc(F)cc2F)CCN1C[C@@H](O)C[C@@H](Cc1ccccc1)C(=O)N[C@@H]1c2ccccc2C[C@H]1O	0.31		IC95 (MT4 [4]): 25 nM; logP [5]: 3.69; Cmax [6]: 730 nM
CC(C)(C)NC(=O)[C@@H]1CN(S(=O)(=O)c2cccc3cccnc23)CCN1C[C@@H](O)C[C@@H](Cc1ccccc1)C(=O)N[C@@H]1c2ccccc2C[C@H]1O	0.013		solubility [7]: < 1 µg/mL; logP [5]: 3.7; IC95 (MT4 [8]): 12.5 nM; Cmax [6]: < 100 nM
Cc1nc(S(=O)(=O)N2CCN(C[C@@H](O)C[C@@H](Cc3ccccc3)C(=O)N[C@@H]3c4ccccc4C[C@H]3O)[C@H](C(=O)NC(C)(C)C)C2)c(C)s1	0.16	200	
CC(C)(C)NC(=O)[C@@H]1CCCCN1C[C@@H](O)C[C@@H](Cc1ccccc1)C(=O)N[C@@H]1c2ccccc2C[C@H]1O	80		
CC(C)(C)NC(=O)[C@@H]1CN(CC(=O)OC(C)(C)C)CCN1C[C@@H](O)C[C@@H](Cc1ccccc1)C(=O)N[C@@H]1c2ccccc2C[C@H]1O	0.81	100	
CC(C)(C)NC(=O)[C@@H]1CN(Cc2cccnc2)CCN1C[C@@H](O)C[C@@H](Cc1ccccc1)C(=O)NC1c2ccccc2C[C@H]1O.O (single isomer, unassigned)			logP [5]: 2.92; IC95 (MT4 [9]): 25 nM; Cmax [6]: 11400 nM
CC(C)(C)NC(=O)[C@@H]1CN(S(=O)(=O)c2cccnc2)CCN1C[C@@H](O)C[C@@H](Cc1ccccc1)C(=O)N[C@@H]1c2ccccc2C[C@H]1O	0.3	200	
CCN1CCN(C[C@@H](O)C[C@@H](Cc2ccccc2)C(=O)N[C@@H]2c3ccccc3C[C@H]2O)[C@H](C(=O)NC(C)(C)C)C1	6.1	> 400	
CC(C)(C)NC(=O)[C@@H]1CN(CCOCc2ccccc2)CCN1C[C@@H](O)C[C@@H](Cc1ccccc1)C(=O)N[C@@H]1c2ccccc2C[C@H]1O	1.03	100	
CC(C)(C)NC(=O)[C@@H]1CN(C(=O)OCc2ccccc2)CCN1C[C@@H](O)C[C@@H](Cc1ccccc1)C(=O)NC1c2ccccc2C[C@H]1O (single isomer, unassigned)	0.36	100	solubility [7]: < 1 µg/mL; logP [5]: 4.67; Cmax [6]: < 100 nM
CC(C)(C)NC(=O)[C@@H]1CNCCN1C[C@@H](O)C[C@@H](Cc1ccccc1)C(=O)N[C@@H]1c2ccccc2C[C@H]1O	38	3000	
CC(C)(C)NC(=O)[C@@H]1CN(Cc2ccccc2S)CCN1C[C@@H](O)C[C@@H](Cc1ccccc1)C(=O)N[C@@H]1c2ccccc2C[C@H]1O	0.54	25	
CC(C)(C)NC(=O)[C@@H]1CC2CCCCC2CN1C[C@@H](O)C[C@@H](Cc1ccccc1)C(=O)N[C@@H]1c2ccccc2C[C@H]1O (some centres undefined)	7.8	400	
